Experimental data from patent US20080064048A1, “Methods for Selecting Proteins that are Readily Presented as Antigens on Dendritic Cells” (Medical and Biological Laboratories, Co., Ltd., priority 2004, published 2008).
Where a SMILES comes first, the peptide text is derived from it. The star is where a group is joined. Cbz = O=C(OCc1ccccc1)*

Assays:
DC2.4 cells = assay: Pulse-chase degradation of cell-bound bOVA (SA beads, SDS-PAGE, Western blot); format: cell-based, mouse; settings: for effect of inhibitor on decrease (degradation) of cell-bound bOVA: DC2.4, bOVA 1 h pulse, chase up to 4 h, MG-132 10 μM, lactacystin 2 μM, NH4Cl 50 mM; for effect of ERAD inhibition on degradation of accumulated bOVA: DC2.4, thapsigargin 300 nM, tunicamycin 2 μg
Experimental: Triton X-100 was used to lyse membranes. […] DC2.4 cells were pulsed with bOVA and chased. bOVA was recovered using SA beads, then separated by SDS-PAGE followed by Western blotting using SA-HRP Ctl: a control not containing inhibitors. […] Asterisks in the left panel indicate non-specific binding with SA-HRP.
Next, DC2.4 cells were incubated with bOVA for one hour, and this was then chased for up to four hours. Cell-bound bOVA was recovered from total cell lysates by streptavidin-agarose and separated by SDS-PAGE.
Depletion of Ca^2+ in the ER is known to inhibit ERAD. Thapsigargin (Tg) is known to decrease the Ca^2+ concentration in the ER lumen by binding to the ER membrane and functioning as an ionophore and to inhibit ERA D. Thus, in the presence of Tg, bOVA degradation by ERAD is predicted to be suppressed. DC2.4 cells were pulsed with bOVA in the presence of MG-132, then washed with PBS or with PBS containing 1 mM EGTA, and then chased for four hours.

OT-I CD8+ T cells = assay: Antigen presentation level: IL-2 production by OT-I CD8+ T cells (ELISA); format: cell-based, mouse; settings: for effect of proteasome inhibitor on stimulation by OVA: DC2.4, OVA 250 μg/mL; for effect of proteasome inhibitor on stimulation by OVA / effect of proteasome inhibitor on stimulation by SIINFEKL peptide: lactastatin 10 μM, MG-132 25 μM; for effect of proteasome inhibitor on stimulation by SIINFEKL peptide: DC2.4, SIINFEKL 10 ng/mL
Source text: Whether knock-down of cellular components involved in ERAD decreases the cross-presentation of exogenous OVA antigen was examined using a system for evaluating the level of antigen presentation, which uses naive CD8^+ T cells from OT-I mice and DC2.4 cells. The DC2.4 cells used as a model of dendritic cells are of the H-2 Kb mouse MHC class I haplotype. OT-I (H-2 Kb) mice are transgenic mice expressing a T cell receptor (TCRα and β) that recognizes an antigenic peptide (SIINFEKL) (SEQ ID NO: 15) derived from OVA presented on the H-2 Kb molecules. The CD8^+ cells of OT-I mice are activated when they recognize OVA peptides presented by BMDCs derived from H-2 Kb mice or by DC2.4 cells. When OVA or bOVA is incubated with and affixed onto DC2.4 cells and the cells are further incubated with naive CD8^+ T cells of OT-I mice, the amount of IL-2 produced by OT-I CD8^+ T cells serves as an index of T-cell stimulation as a result of OVA antigen presented by DC2.4 cells.
Parental or knocked-down DC2.4 cells were pre-incubated in a culture medium supplemented with 50 μg mL^−1 polymyxin B for 30 minutes in the presence or absence of lactacystin or MG-132, and incubated with OVA (250 μg mL^−1) or SIINFEKL (SEQ ID NO: 15) peptides (10 ng mL^−1) for six hours. The cells were washed, fixed with 1% paraformaldehyde, and aliquoted into microtiter plates (5×10^4 per well). 5×10^4 CD8^+ T cells purified from splenocytes of OT-1 mice using magnetic beads were added to each well and after a 24-hour incubation, the IL-2 secretion was measured by ELISA (BD Biosciences) in triplicate. […]

OT-II CD4+ T cells = assay: MHC class II antigen presentation: IL-2 production by OT-II CD4+ T cells; format: cell-based, mouse
Experimental: DC2.4 cells pretreated in the presence of NH4Cl were cultured with OVA, and then the stimulation of OT-I CD8^+ T cells in response to MHC […] presentation (circles) and stimulation of OT-II CD4^+ T cells in response to MHC class II antigen presentation (triangles) was determined by measuring IL-2 production levels. IL-2 production level in the presence of NH4Cl was expressed as a ratio relative to the control (IL-2 production was 700 pg/mL relative to OT-I, and 20 pg/mL relative to OT-II).

[1] = biological target: OVA-derived antigenic peptide SIINFEKL presented on H-2 Kb on DC2.4 cells (chicken; mouse) (UniProt P01887); assay: cell-based or functional assay
TAP2 = biological target: T1, TAP2 (mouse, UniProt P36371 1-702); assay: co-immunoprecipitation with anti-TAP2 from DC2.4 lysate, SA-HRP blot
T1 construct: Endogenous protein; also called TAP1/2
T1 sequence (looked up): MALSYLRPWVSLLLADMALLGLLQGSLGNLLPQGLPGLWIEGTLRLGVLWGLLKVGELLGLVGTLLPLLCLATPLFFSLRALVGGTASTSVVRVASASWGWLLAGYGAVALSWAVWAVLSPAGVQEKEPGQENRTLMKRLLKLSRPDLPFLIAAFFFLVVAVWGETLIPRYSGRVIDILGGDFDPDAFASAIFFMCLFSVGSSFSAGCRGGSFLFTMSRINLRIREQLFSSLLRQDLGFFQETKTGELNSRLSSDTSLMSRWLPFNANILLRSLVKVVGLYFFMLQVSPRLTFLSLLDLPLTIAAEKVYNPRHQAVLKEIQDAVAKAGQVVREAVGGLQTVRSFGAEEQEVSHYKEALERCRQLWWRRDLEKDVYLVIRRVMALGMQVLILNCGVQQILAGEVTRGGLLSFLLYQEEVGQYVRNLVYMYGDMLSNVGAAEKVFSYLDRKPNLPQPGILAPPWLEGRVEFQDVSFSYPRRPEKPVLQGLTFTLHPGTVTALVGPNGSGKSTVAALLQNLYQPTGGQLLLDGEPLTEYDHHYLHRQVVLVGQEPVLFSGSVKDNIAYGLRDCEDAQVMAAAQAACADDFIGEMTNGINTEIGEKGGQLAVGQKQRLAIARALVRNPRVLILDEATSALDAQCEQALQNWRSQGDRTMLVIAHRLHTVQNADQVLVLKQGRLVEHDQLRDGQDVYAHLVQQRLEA
Experimental: (§1) DC2.4 cells were incubated with bOVA and subjected to co-immunoprecipitation with anti-Sec61α. bOVA was added at 2.5 mg mL⁻¹ to cell lysates before immunoprecipitation (the two left-hand lanes in each panel). After SDS-PAGE, blotting was performed using SA-HRP and anti-Sec61α antibody.
(§2) 2×10⁷ DC2.4 or BMDC cells were cultured for four hours in a medium containing 10 μM MG-132 in the presence of bOVA at 250 μg mL⁻¹. Cells were lysed in 20 mM HEPES pH7.6 containing 1% digitonin and protease inhibitors to collect biotin-labeled samples. The samples were cleared of impurities in advance using protein G sepharose (Amersham Pharmacia Biotech), and after incubation with antibodies for precipitation (anti-Sec61β, anti Sec61α, anti-VCP, anti-BiP, anti-PDI, anti-calreticulin, anti-TAP1, and anti-TAP2), the immunoprecipitates were collected using protein G. When chicken anti-CHIP antibody was used, immunoprecipitates were collected using a rabbit anti-IgY column (a person, MBL). The precipitated samples were analyzed by SDS-PAGE and Western blotting.

TAP1 = biological target: T2, TAP1 (mouse, UniProt P21958 1-724); assay: co-immunoprecipitation with anti-TAP1 from DC2.4 lysate, SA-HRP blot
T2 construct: Endogenous protein; also called TAP1/2
T2 sequence (looked up): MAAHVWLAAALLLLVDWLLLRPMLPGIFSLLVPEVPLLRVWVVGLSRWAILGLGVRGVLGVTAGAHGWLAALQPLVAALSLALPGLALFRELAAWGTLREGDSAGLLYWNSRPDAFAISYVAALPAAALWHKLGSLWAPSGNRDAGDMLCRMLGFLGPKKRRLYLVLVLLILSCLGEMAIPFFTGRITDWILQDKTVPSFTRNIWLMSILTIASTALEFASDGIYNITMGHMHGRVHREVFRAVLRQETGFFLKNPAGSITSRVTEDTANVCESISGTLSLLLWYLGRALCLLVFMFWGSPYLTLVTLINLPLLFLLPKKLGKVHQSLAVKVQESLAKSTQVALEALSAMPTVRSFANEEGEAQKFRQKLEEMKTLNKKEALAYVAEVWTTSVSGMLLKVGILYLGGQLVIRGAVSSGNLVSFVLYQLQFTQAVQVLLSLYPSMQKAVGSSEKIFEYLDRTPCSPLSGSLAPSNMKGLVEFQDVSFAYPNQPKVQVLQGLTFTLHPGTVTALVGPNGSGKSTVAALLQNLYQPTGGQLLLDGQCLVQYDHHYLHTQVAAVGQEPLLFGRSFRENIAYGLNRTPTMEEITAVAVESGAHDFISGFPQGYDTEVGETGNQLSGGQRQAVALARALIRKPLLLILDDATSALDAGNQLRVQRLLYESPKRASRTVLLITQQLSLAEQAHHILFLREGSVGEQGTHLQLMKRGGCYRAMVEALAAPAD
Experimental: as §1, §2

[2] = DC2.4 pretreated with NH4Cl, cultured with OVA
[3] = control without NH4Cl, DC2.4 cultured with OVA

CC(C)C[C@@H](C=O)NC(=O)[C@H](CC(C)C)NC(=O)[C@H](CC(C)C)NC(=O)OCc1ccccc1 [MG-132, reference compound] (Cbz-Leu-Leu-Leu-aldehyde)
effect of inhibitor on decrease (degradation) of cell-bound bOVA (DC2.4 cells): blocked
effect of proteasome inhibitor on stimulation by OVA (OT-I CD8+ T cells): suppressed
effect of proteasome inhibitor on stimulation by SIINFEKL peptide (OT-I CD8+ T cells): did not suppress

CC(=O)N[C@@H](CSC(=O)[C@]1([C@@H](O)C(C)C)NC(=O)[C@H](C)[C@@H]1O)C(=O)O [lactacystin, reference compound]
effect of inhibitor on decrease (degradation) of cell-bound bOVA (DC2.4 cells): blocked
effect of proteasome inhibitor on stimulation by OVA (OT-I CD8+ T cells): suppressed
effect of proteasome inhibitor on stimulation by SIINFEKL peptide (OT-I CD8+ T cells): did not suppress

Cl.N [NH4Cl, Ammonium chloride, reference compound]
effect of inhibitor on decrease (degradation) of cell-bound bOVA (DC2.4 cells): did not significantly affect
effect on presentation of the OVA antigen with MHC class II to OT-II CD4+ cells (OT-II CD4+ T cells; [2]): inhibited
effect on presentation of the OVA antigen with MHC class to OT-I CD8+ T cells (OT-I CD8+ T cells; [2]): did not reduce

C/C=C(/C)C(=O)O[C@H]1C(C)=C2[C@H]([C@@H]1OC(=O)CCCCCCC)[C@@](C)(OC(C)=O)C[C@H](OC(=O)CCC)[C@@]1(O)[C@H]2OC(=O)[C@@]1(C)O [Thapsigargin]
effect of ERAD inhibition on degradation of accumulated bOVA (DC2.4 cells): inhibited

tunicamycin
effect of ERAD inhibition on degradation of accumulated bOVA (DC2.4 cells): inhibited

OT-I T cell receptor (TCRα and β) on CD8+ T cells of OT-I mice
IL-2 production level [1]: 700 pg/mL

B1: biotin-labeled chicken ovalbumin (bOVA) (other, UniProt P01012 2-386, looked up)
chain: GSIGAASMEFCFDVFKELKVHHANENIFYCPIAIMSALAMVYLGAKDSTRTQINKVVRFDKLPGFGDSIEAQCGTSVNVHSSLRDILNQITKPNDVYSFSLASRLYAEERYPILPEYLQCVKELYRGGLEPINFQTAADQARELINSWVESQTNGIIRNVLQPSSVDSQTAMVLVNAIVFKGLWEKAFKDEDTQAMPFRVTEQESKPVQMMYQIGLFRVASMASEKMKILELPFASGTMSMLVLLPDEVSGLEQLESIINFEKLTEWTSSNVMEERKIKVYLPRMKMEEKYNLTSVLMAMGITDVFSSSANLSGISSAESLKISQAVHAAHAEINEAGREVVGSAEAGVDAASVSEEFRADHPFLFCIKHIATNAVLFFGRCVSP
modifications: biotin-labeled (sites not given)
notes: Exogenous antigen added to mouse dendritic cells
binding result (TAP2): no binding
binding result (TAP1): no binding

B2: Chicken ovalbumin (protein)
chain: GSIGAASMEFCFDVFKELKVHHANENIFYCPIAIMSALAMVYLGAKDSTRTQINKVVRFDKLPGFGDSIEAQCGTSVNVHSSLRDILNQITKPNDVYSFSLASRLYAEERYPILPEYLQCVKELYRGGLEPINFQTAADQARELINSWVESQTNGIIRNVLQPSSVDSQTAMVLVNAIVFKGLWEKAFKDEDTQAMPFRVTEQESKPVQMMYQIGLFRVASMASEKMKILELPFASGTMSMLVLLPDEVSGLEQLESIINFEKLTEWTSSNVMEERKIKVYLPRMKMEEKYNLTSVLMAMGITDVFSSSANLSGISSAESLKISQAVHAAHAEINEAGREVVGSAEAGVDAASVSEEFRADHPFLFCIKHIATNAVLFFGRCVSP
notes: Chicken ovalbumin used as an antigen model
IL-2 production by OT-II CD4+ T cells (control) (OT-II CD4+ T cells; [3]): 20 pg/mL
antigenicity for stimulation of CD8+ OT-I T cells (IL-2 production) (OT-I CD8+ T cells; DC2.4, dose-response OVA vs bOVA): equally antigenic
OVA stimulation of OT-I CD8+ T cells by knocked-down DC2.4 cells (OT-I CD8+ T cells; Sec61 (S22), VCP (V41) or CHIP (C4) knocked down): reduction in OVA stimulation
IL-2 production by OT-I CD8+ T cells (OT-I CD8+ T cells; [3]): 700 pg/mL

B3: OVA-KDEL: OVA with KDEL (Lys-Asp-Glu-Leu) added to its C-terminus, SEQ ID NO: 14 (protein)
chain: MGSIGAASMEFCFDVFKELKVHHANENIFYCPIAIMSALAMVYLGAKDSTRTQINKVVRFDKLPGFGDSIEAQCGTSVNVHSSLRDILNQITKPNDVYSFSLASRLYAEERYPILPEYLQCVKELYRGGLEPINFQTAADQARELINSWVESQTNGIIRNVLQPSSVDSQTAMVLVNAIVFKGLWEKAFKDEDTQAMPFRVTEQESKPVQMMYQIGLFRVASMASEKMKILELPFASGTMSMLVLLPDEVSGLEQLESIINFEKLTEWTSSNVMEERKIKVYLPRMKMEEKYNLTSVLMAMGITDVFSSSANLSGISSAESLKISQAVHAAHAEINEAGREVVGSAEAGVDAASVSEEFRADHPFLFCIKHIATNAVLFFGRCVSPASAEDYEYPSRSNGTKNNTSQASKDEL
antigen presentation level compared with OVA (OT-I CD8+ T cells; DC2.4, data not shown): stronger
